In the experiment the target is T1, Fatty-acid amide hydrolase 1 [30-579] (Rattus norvegicus, UniProt P97612).
T1 construct: 30-579
T1 sequence (P97612 whole entry): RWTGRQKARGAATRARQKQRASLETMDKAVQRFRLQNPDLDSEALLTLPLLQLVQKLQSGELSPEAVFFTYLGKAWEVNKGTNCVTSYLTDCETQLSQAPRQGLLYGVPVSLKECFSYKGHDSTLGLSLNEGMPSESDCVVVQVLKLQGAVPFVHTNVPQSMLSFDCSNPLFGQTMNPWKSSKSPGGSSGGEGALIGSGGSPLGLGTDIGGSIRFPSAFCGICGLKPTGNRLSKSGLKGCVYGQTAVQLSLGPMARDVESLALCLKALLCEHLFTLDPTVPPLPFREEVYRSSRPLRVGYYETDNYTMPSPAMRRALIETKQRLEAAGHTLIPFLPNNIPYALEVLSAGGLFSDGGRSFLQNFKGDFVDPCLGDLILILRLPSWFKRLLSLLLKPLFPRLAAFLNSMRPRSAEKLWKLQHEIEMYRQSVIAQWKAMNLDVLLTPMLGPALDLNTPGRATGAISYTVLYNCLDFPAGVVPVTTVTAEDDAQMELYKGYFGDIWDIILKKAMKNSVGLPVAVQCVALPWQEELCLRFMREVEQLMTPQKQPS
The experiment can be described thus: Enzyme-coupled Assay. The text has this: Enzyme-coupled assay using oleamide as substrate where stoichiometic quantites of NAD are formed upon the generation of ammonia from oleamide by FAAH hydrolysis.

The text below walks through data of BindingDB's records for doi:10.1016/j.chembiol.2009.02.013 (Pfizer, 2009).

The term Ki denotes a measure of affinity in units of concentration, obtained from inhibition or displacement. Read a low Ki as tighter binding.

Consider `O=C(Nc1cccnc1)N1CCC(Cc2cccc(Oc3ccc(C(F)(F)F)cn3)c2)CC1` [PF-3845, 10], for which the Ki came to 230 nM.
